The subject of experiment [1] is AKT phosphorylation (Ser 473). The experiment is described as follows: FCS induced AKT phosphorylation (Ser473) in IPF primary human lung fibroblasts, MSD assay (Example 1). Format: cell-based. Particulars: Fibroblast, 0.5 h, fibroblasts from n=4 IPF lungs, 10% FCS, 30 minutes, geometric mean (95% CI 0.83-8 nM), read-out: IC50 for inhibition of FCS induced AKT phosphorylation. How it is done:
Phosphorylation of AKT is widely accepted as an indication of PI3-kinase activity, and is utilised here to obtain an IC50 for the effect of 2,4-difluoro-N-{2-(methyloxy)-5-[4-(4-pyridazinyl)-6-quinolinyl]-3-pyridinyl}benzenesulfonamide on primary human lung fibroblasts isolated from the IPF patients, in addition to macrophages isolated from IPF bronchoalveolar lavage (BALF).
Fibroblasts are seeded in 96 well plates at a density of 10,000 cells per well. Following 24 hours of serum starvation, fibroblasts are pre-incubated for 15 minutes in serum free buffer containing a range of concentrations of 2,4-difluoro-N-{2-(methyloxy)-5-[4-(4-pyridazinyl)-6-quinolinyl]-3-pyridinyl}benzenesulfonamide (50 μl volumes per well, comprising 1:10 dilutions of inhibitor ranging from [3×10^−12M] to [3×10^−7M] in serum free DMEM). Fibroblasts are stimulated by the addition of foetal calf serum (FCS) to a final volume of 10%. 30 minutes after stimulation, supernatants are rapidly decanted, and the cell plate placed on ice. 35 μl of 1× Complete Lysis buffer is added to each well and incubated for 10 minutes at 4° C., and stored at −80° C. prior to further analysis. […] The assay protocol is completed as per manufacturer's instructions and plates analysed on an MSD SECTOR Imager. Data are read out as the % of total AKT phosphorylated at position Ser473.

Experiment [2] relates to primary human lung fibroblasts differentiated into myofibroblasts. The experiment is described as follows: Pro-collagen accumulation (hydroxyproline by HPLC) in supernatants of TGFβ differentiated myofibroblasts. Format: cell-based. The settings on record: for inhibition at 0.003 µM / inhibition at 0.03 µM: Homo sapiens, Fibroblast. The protocol: Cultured non-IPF cell lines (as described in section 3.1.2) were used to study pro-collagen accumulation in cell culture supernatants, following TGF6 induced myofibroblast differentiation.
Cells were seeded at 100,000 cells per well in 12-well plates (NUNC #150628) in 1 mL complete DMEM and incubated until they reached 100% confluence (4-5 days). Medium was removed from the confluent cells and replaced with 1 mL pre-incubation medium (DMEM containing 4 mM glutamine, 50 μg/mL ascorbic acid, 0.2 mM proline and 0.4% FBS) and incubated for a further 24 hours. Fresh pre-incubation medium was added to 3 wells and immediately collected for analysis in order to determine background level (T0) of hydroxyproline present in the culture medium at the start of the incubation period. […]
Following 24 hours serum starvation, fibroblasts were stimulated with TGFβ1 (1 ng/mL, 24 hours) (R&D #101-B1) to induce myofibroblast differentiation. Subsequently TGFβ1 was either removed or replenished (by complete serum free media change±TGFβ, 1 ng/ml) and 2,4-difluoro-N-{2-(methyloxy)-5-[4-(4-pyridazinyl)-6-quinolinyl]-3 pyridinyl}benzenesulfonamide (final concentration 3 nM or 30 nM, in 0.1% DMSO) added. Dilutions of 2,4-difluoro-N-{2-(methyloxy)-5-[4-(4-pyridazinyl)-6-quinolinyl]-3 pyridinyl}benzenesulfonamide were prepared from a stock of 0.03M by serial 10-fold dilution in 0.1% DMSO and a further 1000-fold dilution. Differentiated myofibroblast cultures were incubated for further 24 and 48 hours at 37° C., 100% humidity, 10% CO2. See FIG. 1 and FIG. 2 for schematic of the experimental regimen.
At the end of each incubation time point cell supernatant was collected and frozen at −80° C. The cell layer was detached by incubating with 250 μL of 0.25% trypsin-EDTA for 5 minutes and a 1 mL suspension was made in DMEM. Cell counts were performed on the cell suspension using Sceptre […] sensor.
The cell supernatants were allowed to thaw at room temperature and proteins were precipitated overnight in 67% (v/v) ethanol at 4° C.
Precipitated proteins were recovered by vacuum filtration onto Durapore polyvinylidene difluoride (PVDF) membrane filters (pore size 0.45 μm) (type HV, Millipore Ltd., UK; # HVLP02500) and the adhering protein was washed twice with 1.5 mL ethanol (67% v/v). Filters with adherent protein were transferred to Pyrex hydrolysis tubes containing 2 mL 6M HCl. Ethanol-insoluble fractions were then hydrolysed at 110° C. for 16 h and the samples were decolourised by mixing with approx. 70 mg of charcoal and filtered onto Durapore membrane filters (pore size 0.65 μm) (type DA, Millipore Ltd., UK; DVPP02500). Aliquots (100 μl) of decolourised hydrolysate were transferred to 1.5 mL centrifuge tubes and evaporated to dryness using speed vac concentrator (Savant SPD 131DDA, Thermo Electron Corporation, Cambridge, UK).
Hydroxyproline accumulation in cell culture supernatants is used as a measure of pro-collagen production. Hydroxyproline represents approximately 12% of the primary sequence of pro-collagen and is essential for the formation of the collagen triple helix. Hydroxproline is not present in significant levels in any other proteins. Levels of hydroxyproline in cell culture hydrolysates was quantified by reverse-phase high performance liquid chromatography (HPLC) following derivitisation with 7-chloro-4-nitrobenzo-oxa-1; 3-diazole (NBD-CI) (Sigma; #17239-0050).
Hydroxyproline Standard: Standard samples of Trans-4-hydroxy-L-proline (PHPRO) Sigma; #H5534) are stored frozen at −20° C. in 10 μL (250 μM) aliquots. A 10 μL aliquot was diluted in 990 μL Milli-Q water (Milli-Q Plus; Millipore Ltd., UK) and used as standard. The final amount of Hydroxyproline (Hyp) standard loaded onto the column was 50 pmoles.
Samples: Milli-Q water (100 μL) was added to the dried aliquot of hydrolysate and left to rehydrate at 4° C. overnight. […]

The values below come from patent US20160067247A1, “NOVEL USE” (GlaxoSmithKline Intellectual Property (No.2) Limited, priority 2012, published 2016).

For orientation: IC50 means the concentration at which inhibition is half-maximal. As usually defined, the inhibition is the relative decrease from the control value, in per cent.

Molecules are shown by their SMILES. Where two headings read alike, the source gives them in different places.

With `COc1ncc(-c2ccc3nccc(-c4ccnnc4)c3c2)cc1NS(=O)(=O)c1ccc(F)cc1F` [2,4-difluoro-N-{2-(methyloxy)-5-[4-(4-pyridazinyl)-6-quinolinyl]-3-pyridinyl}benzenesulfonamide], the IC50 in experiment [1] turned out to be 2.58 nM. Moreover, the inhibition at 0.003 µM worked out at 31.6% in experiment [2] (24 h, line 0110 (A), TGFβ removed, 3 nM, 24 hour, read-out: mean percent inhibition of TGFβ induced pro-collagen production); 26.2% in experiment [2] (24 h, line 0610 (B), TGFβ removed, 3 nM, 24 hour, read-out: mean percent inhibition of TGFβ induced pro-collagen production); 29.1% in experiment [2] (24 h, line 0610 (B), TGFβ replenished, 3 nM, 24 hour, read-out: mean percent inhibition of TGFβ induced pro-collagen production following replenishment of TGFβ); 48.1% in experiment [2] (48 h, line 0110 (A), TGFβ removed, 3 nM, 48 hour, read-out: mean percent inhibition of TGFβ induced pro-collagen production); 6.3% in experiment [2] (48 h, line 0110 (A), TGFβ replenished, 3 nM, 48 hour, read-out: mean percent inhibition of TGFβ induced pro-collagen production following replenishment of TGFβ); 35.6% in experiment [2] (48 h, line 0610 (B), TGFβ removed, 3 nM, 48 hour, read-out: mean percent inhibition of TGFβ induced pro-collagen production). In addition, the inhibition at 0.03 µM in experiment [2] (24 h, line 0110 (A), TGFβ removed, 30 nM, 24 hour, read-out: mean percent inhibition of TGFβ induced pro-collagen production) worked out at 60.8%; in experiment [2] (24 h, line 0610 (B), TGFβ removed, 30 nM, 24 hour, read-out: mean percent inhibition of TGFβ induced pro-collagen production), 56.8%; in experiment [2] (24 h, line 0610 (B), TGFβ replenished, 30 nM, 24 hour, read-out: mean percent inhibition of TGFβ induced pro-collagen production following replenishment of TGFβ), 45.4%; in experiment [2] (48 h, line 0110 (A), TGFβ removed, 30 nM, 48 hour, read-out: mean percent inhibition of TGFβ induced pro-collagen production), 64%; in experiment [2] (48 h, line 0110 (A), TGFβ replenished, 30 nM, 48 hour, read-out: mean percent inhibition of TGFβ induced pro-collagen production following replenishment of TGFβ) it was 35.2%; in experiment [2] (48 h, line 0610 (B), TGFβ removed, 30 nM, 48 hour, read-out: mean percent inhibition of TGFβ induced pro-collagen production), 59.6%. Also, the inhibition at 0.03 µM in experiment [2] (48 h, line 0610 (B), TGFβ replenished, 30 nM, 48 hour, read-out: mean percent inhibition of TGFβ induced pro-collagen production following replenishment of TGFβ) turned out to be 37.7%. The “mean percent inhibition of TGFβ induced pro-collagen production following replenishment of TGFβ” value in experiment [2] (line 0110 (A), TGFβ replenished, 3 nM, 24 hour) is given as “No inhibition”; in experiment [2] (line 0110 (A), TGFβ replenished, 30 nM, 24 hour) it was “No inhibition”; in experiment [2] (line 0610 (B), TGFβ replenished, 3 nM, 48 hour), “No inhibition”.
